Data from patent publication EP1501797B1, “3-(SUBSTITUTED AMINO)-1H-INDOLE-2-CARBOXYLIC ACID ESTER AND 3-(SUBSTITUTED AMINO)-BENZO[B]THIOPHENE-2-CARBOXYLIC ACID ESTER DERIVATIVES AS INTERLEUKIN-4 GENE EXPRESSION INHIBITORS” (Aventis Pharmaceuticals Inc., priority 2002, dated 2003).
Read-outs that look alike come from different tables or passages of the source.

How the values were obtained:
Assay type in all cases: cell-based
IL-4 mRNA = test: Human Th2 IL-4 transcriptional assay (Taqman, GAPDH normalised); settings: 18 hours, stimulated CD3/CD28 = 100%
Method: RNAs were isolated from the harvested cells and analyzed for IL-4 message by Taqman. GAPDH message was used as an internal standard for normalization. The percent activity was calculated by treating the values from not drug treated, anti-CD3 and anti-CD28 stimulated Th2 cells as 100%. […] In the second experiment IL-4 protein levels were also determined by standard ELISA in culture supernatants as described earlier. […]

[1] = Human primary Th2 cells, proliferation (viability, MTS assay); settings: human, th2 cells, MTS, read-out: Proliferation (% control) mean
Human primary Th1 cells = test: Human primary Th1 (NYTh1) cells, proliferation (MTS assay); settings: data from 8 different experiments combined
Method: (§1) Briefly, CD4^+CD45RA^+ T cells, isolated from donor peripheral blood mononuclear cells of healthy donors, are educated in the presence of anti-CD3/CD28 antibodies and various growth factors to obtain either a Thl-like or Th2-like phenotypes as determined by the known cytokine profiles of these two cell types.
(§2) Generation of Th1/Th2 cells: Twenty four well plates are coated with 300 µL anti-CD3 Ab (10 µg/ml, in PBS 1-2 h at 37°C or overnight at 4°C), and washed two times with PBS. CD4^+/CD45RA^+ cells at a density of 10^6/ml in RPMI, is prepared and added to RPMI medium containing 10% Hyclone serum/ glutamine and 1-2 µg/ml anti-CD28 Ab. The cells are split in two aliquots. […] The degree of polarization is determined by intracellular staining of cells with anti-IFN-γ and anti-IL-4 antibodies from Pharmingen, and using flow cytometry from Becton Dickinson (BD), according to manufacturers description. […] For compound testing, large quantities of Th1 and Th2 cells derived from a given donor (NYTh1 and NYTh2) were expanded and frozen as aliquots in liquid nitrogen. […]
(§3) Re-stimulation by allogeneic cells: Human PBMCs, to be used as alloantigens, are isolated from freshly drawn blood by Ficoll separation. […] Cells are counted and diluted to a final concentration of 2 x 10^6/ml in medium containing 10 µg/ml PHA and 200 units/ml IL-2. […]

human IL-4 promoter = test: IL-4 Luciferase assay in Jurkat cells (6.7-IL-4 Luc); settings: Jurkat cell line; concentration not given
human IFN-γ promoter = test: IFN-γ Luc assay in Jurkat cells; settings: Jurkat cell line; concentration not given; 480 min
IFN-γ = test: Human primary Th1 (NYTh1) cells, IFN-γ ELISA; settings: data from 8 different experiments combined
Method: as §1, §2, §3

With `O=C(O)c1[nH]c2ccccc2c1Nc1ccncc1` [Example 28, 3-(4-Pyridinylamino)-1H-indole-2-carboxylic acid] the mrna remaining at 10 µM (IL-4 mRNA; read-out: RNA Exp #1 % activity) was 44%, the mrna remaining at 10 µM (IL-4 mRNA; read-out: RNA Exp #2 % activity) was 45% and the viability at 0.01 µM ([1]; 0.01 µM) was 89.5%. It also gave a viability at 0.03 µM ([1]; 0.03 µM) of 85%, a viability at 0.1 µM ([1]; 0.1 µM) of 86.7% and a viability at 0.3 µM ([1]; 0.3 µM) of 80.6%. For the same compound, the viability at 1 µM ([1]; 1 µM) was 77.2%, the viability at 3 µM ([1]; 3 µM) was 72% and the viability at 10 µM ([1]; 10 µM) was 71.5%. The IC50 (Human primary Th1 cells) was > 10 µM, the “6.7-IL-4 Luc (% of control)” value (human IL-4 promoter) was 62 ± 29 % of control and the “2.7-IFN-γ -Luc (% of control)” value (human IFN-γ promoter) was 100 ± 15 % of control. The IC50 (IFN-γ) was > 10 µM.
